Data: patent publication US8466188B2, “Use of spiro-oxindole compounds as therapeutic agents” (Xenon Pharmaceuticals Inc., priority 2006, dated 2013)

Assays:
sodium channel = test: Guanidine influx assay (14C-guanidine radiotracer flux) in a known cell line that expresses a sodium channel; assay type: cell-based, human or rat
Text: This example describes an in vitro assay for testing and profiling test agents against human or rat sodium channels stably expressed in cells of either an endogenous or recombinant origin.
The guanidine influx assay is a radiotracer flux assay used to determine ion flux activity of sodium channels in a high-throughput microplate-based format. The assay uses ^14C-guanidine hydrochloride in combination with various known sodium channel modulators, to assay the potency of test agents. Potency is determined by an IC50 calculation. Selectivity is determined by comparing potency of the compound for the channel of interest to its potency against other sodium channels (also called ‘selectivity profiling’).
Each of the test agents is assayed against cells that express the sodium channel of interest. Voltage gated sodium channels are either TTX sensitive or insensitive. This property is useful when evaluating the activities of a channel of interest when it resides in a mixed population with other sodium channels. The following Table 1 lists certain cell lines which are useful in screening for a certain sodium channel activity in the presence or absence of TTX.
It is also possible to employ recombinant cells expressing these sodium channels.
Cells expressing the channel of interest are grown according to the supplier or in the case of a recombinant cell in the presence of selective growth media such as G418 (Gibco/Invitrogen). The cells are disassociated from the culture dishes with an enzymatic solution (1×) Trypsin/EDTA (Gibco/Invitrogen) and analyzed for density and viability using haemocytometer (Neubauer). Disassociated cells are washed and resuspended in their culture media then plated into Scintiplates (Beckman Coulter Inc.) (approximately 100,000 cells/well) and incubated at 37° C./5% CO2 for 20-24 hours. After an extensive wash with Low sodium HEPES-buffered saline solution (LNHBSS) (150 mM Choline Chloride, […] (Sigma), 1 mM Calcium Chloride, 5 mM Potassium Chloride, 1 mM Magnesium Chloride, 10 mM Glucose) agents diluted with LNHBSS are added to each well. (Varying concentrations of test agent may be used). The activation/radiolabel mixture contains aconitine (Sigma), and ^14C-guanidine hydrochloride (ARC).
After loading the cells with test agent and activation/radiolabel mixture, the Scintiplates are incubated at ambient temperature. Following the incubation, the Scintplates are extensively washed with LNHBSS supplemented with guanidine (Sigma). The Scintiplates are dried and then counted using a Wallac MicroBeta TriLux (Perkin-Elmer Life Sciences). The ability of the test agent to block sodium channel activity is determined by comparing the amount of ^14C-guanidine present inside the cells expressing the different sodium channels.
IC50 value of a test agent for a specific sodium channel may be determined using the above general method. […] The IC50 curve is calculated using the 4 Parameter Logistic Model or Sigmoidal Dose-Response Model formula (fit=(A+((B−A)/(1+((C/x)^D)))).
The fold selectivity, factor of selectivity or multiple of selectivity, is calculated by dividing the IC50 value of the test sodium channel by the reference sodium channel, for example, Nav1.5.
The Example numbers provided in Table 2 correspond to the Example numbers herein: […]

Nav1.2 in PC12 cells = Nav1.2 in PC12 cells (Rattus norvegicus, UniProt P04775)
[1] = system: Nav1.4 and 1.5 in L6 cells; assay type: cell-based, rat
[2] = system: Nav1.8 in SK-N-BE2C cells; assay type: cell-based, human
Nav1.4 in CHO-K1 cells = assay type: cell-based, Chinese hamster

Chain of Nav1.2 in PC12 cells (P04775 whole entry, looked up): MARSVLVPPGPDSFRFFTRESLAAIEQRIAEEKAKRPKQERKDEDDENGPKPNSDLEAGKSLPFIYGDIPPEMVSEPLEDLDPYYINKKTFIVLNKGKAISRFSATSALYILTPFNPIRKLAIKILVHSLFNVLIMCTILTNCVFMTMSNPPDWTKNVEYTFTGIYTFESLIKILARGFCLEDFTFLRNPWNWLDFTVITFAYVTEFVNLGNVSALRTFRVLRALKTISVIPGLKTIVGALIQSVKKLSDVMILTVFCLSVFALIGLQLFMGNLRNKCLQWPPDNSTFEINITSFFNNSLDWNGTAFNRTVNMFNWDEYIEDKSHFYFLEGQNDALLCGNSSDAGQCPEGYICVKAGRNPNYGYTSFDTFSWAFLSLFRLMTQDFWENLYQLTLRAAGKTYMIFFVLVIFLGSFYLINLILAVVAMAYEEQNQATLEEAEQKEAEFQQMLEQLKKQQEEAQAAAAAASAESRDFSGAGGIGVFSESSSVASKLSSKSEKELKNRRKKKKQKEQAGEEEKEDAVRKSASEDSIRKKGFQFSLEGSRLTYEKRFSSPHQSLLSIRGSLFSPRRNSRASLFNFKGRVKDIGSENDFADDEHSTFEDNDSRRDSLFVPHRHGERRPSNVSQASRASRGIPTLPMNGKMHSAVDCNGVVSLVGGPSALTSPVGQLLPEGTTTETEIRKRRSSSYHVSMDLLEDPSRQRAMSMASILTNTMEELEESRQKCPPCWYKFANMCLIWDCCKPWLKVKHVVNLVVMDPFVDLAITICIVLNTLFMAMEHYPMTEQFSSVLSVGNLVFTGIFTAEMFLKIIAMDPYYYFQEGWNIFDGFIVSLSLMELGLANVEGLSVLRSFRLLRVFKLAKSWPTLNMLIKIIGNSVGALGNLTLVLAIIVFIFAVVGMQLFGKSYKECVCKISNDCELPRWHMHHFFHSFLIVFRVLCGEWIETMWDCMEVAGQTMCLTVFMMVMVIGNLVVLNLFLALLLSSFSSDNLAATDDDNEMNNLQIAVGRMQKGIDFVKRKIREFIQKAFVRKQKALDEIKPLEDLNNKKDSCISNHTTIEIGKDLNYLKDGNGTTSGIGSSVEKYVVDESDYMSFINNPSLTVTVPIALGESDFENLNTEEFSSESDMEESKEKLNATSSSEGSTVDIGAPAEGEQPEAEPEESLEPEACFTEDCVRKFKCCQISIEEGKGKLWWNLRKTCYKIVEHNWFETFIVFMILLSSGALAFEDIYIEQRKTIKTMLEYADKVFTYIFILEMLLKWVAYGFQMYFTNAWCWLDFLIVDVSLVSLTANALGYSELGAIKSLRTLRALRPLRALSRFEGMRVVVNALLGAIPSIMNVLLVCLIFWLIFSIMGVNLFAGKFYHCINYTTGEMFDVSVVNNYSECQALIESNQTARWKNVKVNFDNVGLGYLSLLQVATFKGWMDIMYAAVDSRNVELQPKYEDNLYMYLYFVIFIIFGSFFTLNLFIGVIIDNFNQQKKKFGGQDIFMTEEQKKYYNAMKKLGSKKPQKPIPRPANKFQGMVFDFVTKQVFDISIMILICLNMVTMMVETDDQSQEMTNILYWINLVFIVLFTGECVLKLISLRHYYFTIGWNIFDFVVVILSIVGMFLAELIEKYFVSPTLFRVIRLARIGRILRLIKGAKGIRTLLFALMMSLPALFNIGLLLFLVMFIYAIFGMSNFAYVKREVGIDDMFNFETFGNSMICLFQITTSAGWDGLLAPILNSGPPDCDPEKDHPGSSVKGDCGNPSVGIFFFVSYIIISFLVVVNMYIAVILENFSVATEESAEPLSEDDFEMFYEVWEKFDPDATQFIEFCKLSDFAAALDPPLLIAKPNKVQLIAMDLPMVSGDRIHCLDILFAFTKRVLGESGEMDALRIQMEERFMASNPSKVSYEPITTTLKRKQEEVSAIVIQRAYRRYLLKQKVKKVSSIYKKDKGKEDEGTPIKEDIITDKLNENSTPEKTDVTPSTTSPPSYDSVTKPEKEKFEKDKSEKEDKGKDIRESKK

SMILES	melting point [°C]	IC50 (sodium channel) [nM]	also measured
O=C1N(CCC2CC2)c2ccccc2C12COc1cc3c(cc12)OCO3 (stereo not drawn) [Example 1, 1′-(2-cyclopropylethyl)spiro[furo[2,3-f][1,3]benzodioxole-7,3′-indol]-2′(1′H)-one]	125 to 127	1 to 10	–
CCCCCN1C(=O)C2(OCc3cc4c(cc32)OCO4)c2ccccc21 (stereo not drawn) [Example 20, 1′-pentyl-7H-spiro[furo[3,4-f][1,3]benzodioxole-5,3′-indol]-2′(1′H)-one]	113 to 115	1 to 10	–
CCCCCN1C(=O)C2(COc3cc4c(cc32)OCO4)c2c(C#N)cccc21 (stereo not drawn) [Example 30, 2′-oxo-1′-pentyl-1′,2′-dihydrospiro[furo[2,3-f][1,3]benzodioxole-7,3′-indole]-4′-carbonitrile]	128 to 129	10 to 100	–
CCCCCN1C(=O)C2(COc3ccccc32)c2ccccc21 (stereo not drawn) [Example 32, 1′-pentylspiro[1-benzofuran-3,3′-indol]-2′(1′H)-one]	–	10 to 100	–
CCCCCN1C(=O)C2(COc3cc(Nc4ccccc4)ccc32)c2ccccc21 (stereo not drawn) [Example 33, 6-anilino-1′-pentylspiro[1-benzofuran-3,3′-indol]-2′(1′H)-one]	–	> 1000	–
CCCCCN1C(=O)C2(COc3cc(N4CCOCC4)ccc32)c2ccccc21 (stereo not drawn) [Example 34, 6-morpholin-4-yl-1′-pentylspiro[1-benzofuran-3,3′-indol]-2′(1′H)-one]	–	> 1000	–
CCCCCN1C(=O)C2(COc3cc(Oc4ccccc4)ccc32)c2ccccc21 (stereo not drawn) [Example 36, 1′-pentyl-6-phenoxyspiro[1-benzofuran-3,3′-indol]-2′(1′H)-one]	–	> 1000	–
CCCCCN1C(=O)C2(COc3cc(-c4cccnc4)ccc32)c2ccccc21 (stereo not drawn) [Example 37, 1′-pentyl-6-pyridin-3-ylspiro[1-benzofuran-3,3′-indol]-2′(1′H)-one]	–	> 1000	–
CCCCCN1C(=O)C2(COc3cc(-c4ccncc4)ccc32)c2ccccc21 (stereo not drawn) [Example 38, 1′-pentyl-6-pyridin-4-ylspiro[1-benzofuran-3,3′-indol]-2′(1′H)-one]	107 to 110	100 to 1000	–
CCCCCN1C(=O)C2(COc3cc(S(C)(=O)=O)ccc32)c2ccccc21 (stereo not drawn) [Example 39, 6-(methylsulfonyl)-1′-pentylspiro[1-benzofuran-3,3′-indol]-2′(1′H)-one]	–	> 1000	–
CCCCCN1C(=O)C2(COc3cc(S(=O)(=O)c4ccccc4)ccc32)c2ccccc21 (stereo not drawn) [Example 40, 1′-pentyl-6-(phenylsulfonyl)spiro[1-benzofuran-3,3′-indol]-2′(1′H)-one]	–	100 to 1000	–
CCCCCN1C(=O)C2(COc3ccc(Oc4ccccc4)cc32)c2ccccc21 (stereo not drawn) [Example 41, 1′-pentyl-5-phenoxyspiro[1-benzofuran-3,3′-indol]-2′(1′H)-one]	–	> 1000	–
CCCCCN1C(=O)C2(COc3ccc(-c4cccnc4)cc32)c2ccccc21 (stereo not drawn) [Example 48, 1′-pentyl-5-pyridin-3-ylspiro[1-benzofuran-3,3′-indol]-2′(1′H)-one]	–	100 to 1000	–
CCCCCN1C(=O)C2(COc3ccc(-c4cncnc4)cc32)c2ccccc21 (stereo not drawn) [Example 49, 1′-pentyl-5-pyrimidin-5-ylspiro[1-benzofuran-3,3′-indol]-2′(1′H)-one]	115 to 117	100 to 1000	–
CCCCCN1C(=O)C2(COc3ccc(-c4ccncc4)cc32)c2ccccc21 (stereo not drawn) [Example 50, 1′-pentyl-5-pyridin-4-ylspiro[1-benzofuran-3,3′-indol]-2′(1′H)-one]	–	100 to 1000	–
CCCCCN1C(=O)C2(COc3ccc(C#N)cc32)c2ccccc21 (stereo not drawn) [Example 51, 2′-oxo-1′-pentyl-1′,2′-dihydrospiro[1-benzofuran-3,3′-indole]-5-carbonitrile]	–	100 to 1000	–
O=C(CN1C(=O)C2(COc3ccc(-c4cccnc4)cc32)c2ccccc21)Nc1ccccc1F (stereo not drawn) [Example 52, N-(2-fluorophenyl)-2-(2′-oxo-5-pyridin-3-ylspiro[1-benzofuran-3,3′-indol]-1′(2′H)-yl)acetamide]	98 to 100	100 to 1000	–
O=C1N(C(c2ccccc2)c2ccccc2)c2ccccc2C12COc1ccc(-c3cccnc3)cc12 (stereo not drawn) [Example 54, 1′-(diphenylmethyl)-5-pyridin-3-ylspiro[1-benzofuran-3,3′-indol]-2′(1′H)-one]	204 to 207	> 1000	–
CC(C)(C)OC(=O)N1CCCC(c2ccc3c(c2)C2(CO3)C(=O)Nc3ccccc32)C1 (stereo not drawn) [Example 55, tert-butyl 3-(2′-oxo-1′,2′-dihydrospiro[1-benzofuran-3,3′-indol]-5-yl)piperidine-1-carboxylate]	120 to 123	> 1000	–
O=C(NCCN1C(=O)C2(COc3cc4c(cc32)OCO4)c2ccccc21)c1ccccc1OC(F)(F)F (stereo not drawn) [Example 59, N-[2-(2′-oxospiro[furo[2,3-f][1,3]benzodioxole-7,3′-indol]-1′(2′H)-yl)ethyl]-2-(trifluoromethoxy)benzamide]	183 to 184	100 to 1000	–
NC1=N[C@H](O)[C@H]2[C@H]3O[C@]4(O)O[C@@H]([C@@H](O)[C@@]2(N1)[C@@H]4O)[C@]3(O)CO [TTX]	–	–	block of [14C] Guanidine influx by TTX (Nav1.2 in PC12 cells): Guanidine influx was completely; block of [14C] Guanidine influx by TTX [1]: partially blocked by TTX (Nav1.5; block of [14C] Guanidine influx by TTX [2]: TTX partially blocked influx; block of [14C] Guanidine influx by TTX (Nav1.4 in CHO-K1 cells): Guanidine influx was completely
